Results as given in publication PMC7395068, “The evolution of strategies to minimise the risk of human drug-induced liver injury (DILI) in drug discovery and development” (Archives of Toxicology, 2020).
Read-outs that look alike come from different tables or passages of the source.

What was measured:
[1] = tested on: THLE-Null and THLE-3A4 cells; details: In vitro Assay; ref Gustafsson 2014; cited from earlier work
PHH = details: cited from earlier work
HepG2 cells [2] = details: cited from earlier work
[3] = Plasma free fraction (fu) and unbound Cmax (Cmax,u); assay type: in vitro ADME, human; details: unbound plasma Cmax
Experimental: The prediction of DILI severity was evaluated further using the 3D combined HCI assays using plasma-free fraction. The majority of fu values were obtained from literature, when unavailable in-house prediction was utilised. Unbound plasma Cmax concentrations (Cmax,u) were derived by multiplying total plasma Cmax with the corresponding free fraction (fu) for each compound.

PHH spheroids = details: cited from earlier work
[4] = read-out: Human plasma Cmax; total plasma Cmax.tot, median of 9 literature references; cited from earlier work
[5] = cited from earlier work
[6] = tested on: HepG2 C3A spheroid, BSEP, Glu/Gal in HepG2 cells, bioactivation; details: cited from earlier work
[7] = tested on: isolated mouse liver mitochondria; details: In vitro Assay; ref Porceddu 2012; cited from earlier work
HepaRG spheroids = assay: Combined HCI (HCS) and cellular ATP 3D assay in HepaRG spheroids
hLiMTs [8] = assay: Combined HCI (HCS) and cellular ATP 3D assay in hLiMTs
rBsep = details: In vitro Assay; ref Dawson 2012; cited from earlier work
[9] = plasma free fraction; cited from earlier work
[10] = tested on: HepG2 cells, primary human hepatocytes; details: In vitro Assay; ref Garside 2014; cited from earlier work
hLiMTs [11] = details: cited from earlier work
HepG2 cells [12] = details: cited from earlier work; remark: listed apart in the source
[13] = In vitro Assay, ref Proctor 2017
[14] = Microtissue model structural based (HCI), combined HCS and ATP, MEC < 25 × Cmax.tot cut-off
[15] = In vitro Assay, ref Persson 2013

## C#CCN(C)Cc1ccccc1 [pargyline]
[1]
  THLE-Null: -VE
  THLE-Null/3A4: -VE
PHH; 2D PHH, ATP, IC50 < 100 × Cmax.tot, ref Proctor et al. 2017
  PHH/100xCmax, Proctor (2017): -VE
PHH; 2D PHH, ATP, IC50 threshold 100 µM, ref Proctor et al. 2017
  PHH/100uM, Proctor (2017): -VE
PHH; [13]
  PHH ATP <100uM: -VE
HepG2 cells [2]; In vitro Assay, ref O'Brien 2006
  Structural based (HCI): -VE
HepG2 cells [2]; Structural based (HCI), HepG2, ref O'Brien et al. 2006
  DILI in vitro assay prediction, O'Brien (2006): -VE
[3]
  Human plasma Cmax,u: 237 nM
PHH spheroids; In vitro Assay, ref Vorrink 2018
  hLiMTs ATP <20 x Cmax: -VE
PHH spheroids; PHH spheroids, ATP, 14 days, IC20 < 20 × Cmax.tot, ref Vorrink et al. 2018
  DILI in vitro assay prediction, Vorrink (2018): -VE
[4]
  Cmax: 819 nM
[5]; Chen et al. 2016 or literature alignment, ref Chen et al. 2016
  Assigned DILI category: 1
[5]; ref Dawson 2012
  In vivo DILI: -VE
[5]; ref Garside 2014
  In vivo DILI: -VE
[5]; ref Gustafsson 2014
  In vivo DILI: -VE
[5]; ref O'Brien 2006
  In vivo DILI: -VE
[5]; ref Persson 2013
  In vivo DILI: -VE
[5]; ref Porceddu 2012
  In vivo DILI: -VE
[5]; ref Proctor 2017
  In vivo DILI: -VE
[5]; ref Vorrink 2018
  In vivo DILI: -VE
[5]; ref Williams 2019
  In vivo DILI: -VE
[6]; Bayesian modeling, ref Williams et al. 2019
  Bayesian Machine Learning DILI prediction, Williams (2019): -VE
[6]; In vitro Assay, ref Williams 2019
  Bayesian Machine Learning: -VE
[7]
  in vitro data EC2<=1x Cmax: -VE
  in vitro data EC20<=2uM: -VE
HepaRG spheroids; HepaRG, ATP endpoint, cut-off <25x Avg Cmax
  HepaRG <25x Avg Cmax ATP: -ve
HepaRG spheroids; HepaRG, ATP endpoint, cut-off <100x Avg Cmaxu
  HepaRG <100x Avg Cmaxu ATP: -ve
HepaRG spheroids; HepaRG, HCS endpoints, cut-off <25x Avg Cmax
  HepaRG <25x Avg Cmax HCS: -ve
HepaRG spheroids; HepaRG, HCS endpoints, cut-off <100x Avg Cmaxu
  HepaRG <100x Avg Cmaxu HCS: -ve
HepaRG spheroids; HepaRG, all endpoints (ATP and HCS), cut-off <25x Avg Cmax
  HepaRG <25x Avg Cmax All: -ve
HepaRG spheroids; HepaRG, all endpoints, Cmax max used
  HepaRG Cmax max All: -ve
HepaRG spheroids; HepaRG, all endpoints, Cmax min used
  HepaRG Cmax min All: -ve
HepaRG spheroids; HepaRG, all endpoints, cut-off <10 uM
  HepaRG <10 uM All: -ve
HepaRG spheroids; HepaRG, all endpoints, cut-off <100x Avg Cmaxu
  HepaRG <100x Avg Cmaxu All: -ve
HepaRG spheroids; [14]
  DILI prediction HepaRG spheroids (HCS-MEC): -VE
hLiMTs [8]; [14]
  DILI prediction hLiMTs (HCS-MEC): -VE
hLiMTs [8]; hLiMTs, ATP endpoint, cut-off <25x Avg Cmax
  hLiMTs <25x Avg Cmax ATP: -ve
hLiMTs [8]; hLiMTs, ATP endpoint, cut-off <100x Avg Cmaxu
  hLiMTs <100x Avg Cmaxu ATP: -ve
hLiMTs [8]; hLiMTs, HCS endpoints, cut-off <25x Avg Cmax
  hLiMTs <25x Avg Cmax HCS: -ve
hLiMTs [8]; hLiMTs, HCS endpoints, cut-off <100x Avg Cmaxu
  hLiMTs <100x Avg Cmaxu HCS: -ve
hLiMTs [8]; hLiMTs, all endpoints (ATP and HCS), cut-off <25x Avg Cmax
  hLiMTs <25x Avg Cmax All: -ve
hLiMTs [8]; hLiMTs, all endpoints, Cmax max used
  hLiMTs Cmax max All: -ve
hLiMTs [8]; hLiMTs, all endpoints, Cmax min used
  hLiMTs Cmax min All: -ve
hLiMTs [8]; hLiMTs, all endpoints, cut-off <10 uM
  hLiMTs <10 uM All: -ve
hLiMTs [8]; hLiMTs, all endpoints, cut-off <100x Avg Cmaxu
  hLiMTs <100x Avg Cmaxu All: -ve
rBsep
  Inhibition of rBsep cutoff<1& cmax u>.2: -VE
  Inhibition of rBsep cutoff<3: -VE
[9]
  fu: 0.290
[10]
  Cluster 1-6 +VE Assay: +VE
hLiMTs [11]; [13]
  hLiMTs ATP <100uM: -VE
hLiMTs [11]; hLiMTs, ATP, IC50 < 100 × Cmax.tot, ref Proctor et al. 2017
  hLiMTs/100xCmax, Proctor (2017): -VE
hLiMTs [11]; hLiMTs, ATP, IC50 threshold 100 µM, ref Proctor et al. 2017
  hLiMTs/100uM, Proctor (2017): -VE
HepG2 cells [12]; [15]
  Cluser analysis: -VE
  Structural based (HCI): -VE
HepG2 cells [12]; Structural based (HCI), HepG2, ref Persson et al. 2013
  DILI in vitro assay prediction, Persson (2013): -VE
